Measured values reported in patent publication US9949980B2, “Drugs to prevent HPV infection” (Wisconsin Alumni Research Foundation, priority 2008, dated 2018).
Read-outs that look alike come from different tables or passages of the source.

How the values were obtained:
HPV16 pseudoviruses = assay: microbe, parasite or virus in culture; assay type: cell-based; conditions: Human papillomavirus 16, HEK-293T, 48 h
Experimental: (§1) FIG. 1. High throughout screen (HTS) for identifying inhibitors of HPV infection. Shown is a schematic showing basic steps in the HTS. […] Briefly, HPV16 pseudoviruses containing the SEAP reporter genes are analyzed for their ability to infect as judged by the levels of secreted alkaline phosphatase in the tissue culture supernatant (light grey arrows). Cell viability was assessed in parallel on the same wells (dark grey arrows). In the specific HTS carried out in this study, the compounds were added at 3 uM/1% DMSO final concentration (black arrow) 4 hours prior to infection.
(§2) After incubation at 37° C. for 24 hrs, 35 μL of media was removed. […] Cells were incubated at 37° C. for 48 hrs. 2.5 μL of media was collected for SEAP assay using a PHOSPHA-LIGHT chemiluminescent alkaline phosphatase assay (Applied Biosystems). Cell viability was determined using the CellTiter Glo Luminescent Cell Viability Assay™ (Promega).

in vitro = conditions: human
Experimental: as §1, §2

HPV16 pseudovirus = assay: Luciferase assay: HPV16 pseudovirus with renilla luciferase reporter (HPV16wpA-RL); conditions: renilla luciferase reporter behind HPV16 promoter
Experimental: The protocol for the secondary screen was identical to that of the primary screen with the exception that all volumes were scaled up by a factor of four. RL activity was measured using the Renilla Luciferase Assay System (Promega).

[1] = read-out: Infectivity (SEAP Activity), 3 μM HTS standard concentration, 293T cells, 48 hrs
[2] = read-out: Infectivity vs. viability, 3 μM HTS standard concentration, ratio infectivity/viability
[3] = read-out: Primary HTS SEAP vs Viability, Table 2, first pair of columns (c2)
[4] = read-out: Primary HTS SEAP vs Viability, Table 2, second pair of columns (c4)
[5] = Primary HTS Viability % Average

Row | SMILES | activity at 3 µM (HPV16 pseudoviruses; [1]) | activity at 3 µM (HPV16 pseudoviruses; [2]) | activity at 3 µM (HPV16 pseudoviruses; [3]) | activity at 3 µM (HPV16 pseudoviruses; [4]) | viability at 52 h, 3 μM (in vitro; [5]) | viability at 52 h, 3 μM (in vitro; Viability (CelTiter Glow)) | Luciferase assay RL % Average (HPV16 pseudovirus) | viability at 52 h, 3 μM (in vitro)
1 | CCOC(=O)CCc1c(C)nc2c(C)c(-c3ccccc3)nn2c1O [Compound 1, ethyl 3-(7-hydroxy-3,5-dimethyl-2-phenylpyrazolo[1,5-a]pyrimidin-6-yl)propanoate] | 22.9% | 24.5% | 13.1% | 32.6% | 85% | 93.4% | 64.85% | –
2 | Cc1cc(O)n2c(nc3ccccc32)c1C(=O)O [Compound 2, 1-hydroxy-3-methylpyrido[1,2-a]benzimidazole-4-carboxylic acid] | 19.7% | 19.6% | 13.5% | 25.9% | – | 101% | 75.09% | –
3 | Cc1nc2ccccn2c1C(=O)NC(C)c1ccccc1 (stereo not drawn) [Compound 3, 2-methyl-N-(1-phenylethyl)imidazo[1,2-a]pyridine-3-carboxamide] | 20.8% | 20.3% | 18.7% | 23% | 105% | 103% | 71.67% | –
4 | Cc1ccccc1C(=O)N1CC(C)CC(C)C1 (stereo not drawn) [Compound 5, 3,5-dimethyl-1-(2-methylbenzoyl)piperidine] | 22.9% | 21.2% | 29.5% | 16.2% | 102% | 108% | 102.39% | –
5 | CCN1C(=O)c2cccc3c(NC(=O)c4ccc(S(=O)(=O)N(C)C)cc4)ccc1c23 [Compound 6, 4-[(dimethylamino)sulfonyl]-N-(1-ethyl-2-oxo-1,2-dihydrobenzo[cd]indol-6-yl)benzamide] | 26.8% | 26.6% | 24.4% | 29.3% | – | 101% | 71.67% | –
6 | Cc1ccccc1OCCc1c(C)n[nH]c1C [Compound 7, 3,5-dimethyl-4-[2-(2-methylphenoxy)ethyl]-1H-pyrazole] | 36.9% | 39.7% | 32% | 41.8% | – | 92.9% | 68.26% | –
7 | Cc1ccc(N2C(=O)C(Cl)=C(Nc3ccc(C)c(C)c3)C2=O)c(C)c1 [Compound 6137315, 3-chloro-1-(2,4-dimethylphenyl)-4-[(3,4-dimethylphenyl)amino]-1H-pyrrole-2,5-dione] | 55.9% | 59.7% | – | – | – | 93.7% | – | –
8 | O=C1NC(=S)SC1=Cc1cc(Cl)c(OCc2ccccc2)c(Cl)c1 [Compound 6142367, 5-[4-(benzyloxy)-3,5-dichlorobenzylidene]-2-thioxo-1,3-thiazolidin-4-one] | 61.2% | 57.9% | – | – | – | 106% | – | –
9 | COc1ccc(CCNc2cc(N3CCN(C(=O)c4ccc(Cl)cc4)CC3)ccc2[N+](=O)[O-])cc1OC [Compound 6144357, 5-[4-(4-chlorobenzoyl)-1-piperazinyl]-N-[2-(3,4-dimethoxyphenyl)ethyl]-2-nitroaniline] | 39.5% | 46.6% | – | – | – | 84.6% | – | –
10 | Cc1nc2cc(-c3cccc(F)c3)nn2c(O)c1C [Compound 6156840, 2-(3-fluorophenyl)-5,6-dimethylpyrazolo[1,5-a]pyrimidin-7-ol] | 63.5% | 59.2% | – | – | – | 107% | – | –
11 | Cc1cc(C=C2C(=O)NC(=S)N(c3ccccc3F)C2=O)c(C)n1C [Compound 6166672, 1-(2-fluorophenyl)-2-thioxo-5-[(1,2,5-trimethyl-1H-pyrrol-3-yl)methylene]dihydro-4,6(1H,5H)-pyrimidinedione] | 53.5% | 49.2% | – | – | – | – | – | 109%
12 | COc1ccc(OC)c(NC(=O)CN(c2cc(OC)ccc2OC)S(C)(=O)=O)c1 [Compound 6167601, N~1~,N~2~-bis(2,5-dimethoxyphenyl)-N~2~-(methylsulfonyl)glycinamide] | 59.1% | 54.4% | – | – | – | 109% | – | –
13 | CC(=O)Nc1ccccc1NC(=O)c1ccccc1I [Compound 6168016, N-[2-(acetylamino)phenyl]-2-iodobenzamide] | 57% | 53.7% | – | – | – | 106% | – | –
14 | COC(=O)C1=C(C)NC2=C(C(=O)c3ccccc32)C1c1ccc(-c2ccccc2C(=O)O)o1 (stereo not drawn) [Compound 6177037, 2-{5-[3-(methoxycarbonyl)-2-methyl-5-oxo-4,5-dihydro-1H-indeno[1,2-b]pyridin-4-yl]-2-furyl}benzoic acid] | 64% | 58.4% | – | – | – | 110% | – | –
